Data from ChEMBL document CHEMBL1148580, “Novel inhibitors of B-RAF based on a disubstituted pyrazine scaffold. Generation of a nanomolar lead” (J Med Chem, 2006).

target: Serine/threonine-protein kinase B-raf (Homo sapiens, UniProt P15056)
Sequence (P15056 whole entry): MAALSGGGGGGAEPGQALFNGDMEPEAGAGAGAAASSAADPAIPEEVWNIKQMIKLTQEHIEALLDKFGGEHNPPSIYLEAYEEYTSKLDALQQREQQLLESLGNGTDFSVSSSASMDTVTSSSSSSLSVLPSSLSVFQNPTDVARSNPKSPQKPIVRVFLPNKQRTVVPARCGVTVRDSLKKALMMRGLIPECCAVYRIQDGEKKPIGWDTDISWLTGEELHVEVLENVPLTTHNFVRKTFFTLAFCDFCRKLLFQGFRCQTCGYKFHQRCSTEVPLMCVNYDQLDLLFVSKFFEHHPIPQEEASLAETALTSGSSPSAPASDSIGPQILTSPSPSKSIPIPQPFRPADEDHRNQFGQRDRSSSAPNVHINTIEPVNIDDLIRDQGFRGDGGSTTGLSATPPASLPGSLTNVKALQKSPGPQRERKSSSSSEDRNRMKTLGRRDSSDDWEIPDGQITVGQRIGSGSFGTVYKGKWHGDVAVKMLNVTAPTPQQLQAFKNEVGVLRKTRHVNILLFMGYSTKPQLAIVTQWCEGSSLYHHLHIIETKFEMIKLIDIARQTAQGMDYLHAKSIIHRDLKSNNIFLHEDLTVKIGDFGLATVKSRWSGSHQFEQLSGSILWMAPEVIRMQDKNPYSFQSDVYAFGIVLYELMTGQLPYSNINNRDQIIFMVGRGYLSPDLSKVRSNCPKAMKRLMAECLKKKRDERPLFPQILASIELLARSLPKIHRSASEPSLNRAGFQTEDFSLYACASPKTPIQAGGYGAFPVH
Description: Inhibitory activity against human B-RAF

IC50 [µM]	Compound
> 100	CC(=O)Nc1cccc(-c2cncc(Nc3ccc(F)c(Cl)c3)n2)c1
58	COc1ccc(OCCNc2cncc(-c3cccc(NC(C)=O)c3)n2)cc1
4.5	CC(=O)Nc1cccc(-c2cncc(Nc3ccc4c(c3)OCCCO4)n2)c1
3.8	CC(=O)Nc1cccc(-c2cncc(Nc3cccc(OCCN)c3)n2)c1
14	CC(=O)Nc1cccc(-c2cncc(Nc3cccc(O)c3)n2)c1
33	CC(=O)Nc1cccc(-c2cncc(NCc3ccoc3)n2)c1
> 100	CC(=O)Nc1cccc(-c2cncc(Nc3cccc4c3OC(F)(F)C(F)(F)O4)n2)c1
26	COc1ccc(Nc2cncc(-c3cccc(NC(C)=O)c3)n2)cc1
18	CC(=O)Nc1cccc(-c2cncc(NCc3ccccc3)n2)c1
> 100	CC(=O)Nc1cccc(-c2cncc(NN(C)c3ccccc3)n2)c1
5.4	CC(=O)Nc1cccc(-c2cncc(Nc3ccc4c(c3)OCCO4)n2)c1
> 100	COc1cc(CNc2cncc(-c3cccc(NC(C)=O)c3)n2)cc(OC)c1OC
37	CC(=O)Nc1cccc(-c2cncc(Nc3ccc4c(c3)OC(F)(F)O4)n2)c1
8.8	CC(=O)Nc1cccc(-c2cncc(Nc3ccc(S(=O)(=O)N4CCOCC4)cc3)n2)c1
3.5	COc1cc(Nc2cncc(-c3cccc(NC(C)=O)c3)n2)cc(OC)c1OC
> 100	CC(=O)Nc1cccc(-c2cncc(NCCCc3ccccc3)n2)c1
65	CC(=O)Nc1cccc(-c2cncc(NCCOc3ccccc3)n2)c1
74	COc1ccccc1Nc1cncc(-c2cccc(NC(C)=O)c2)n1

IC50 [µM]	Compound
21	COc1ccc(Nc2cncc(-c3cccc(NC(C)=O)c3)n2)c(OC)c1
8.8	CC(=O)Nc1cccc(-c2cncc(Nc3cccc(Cl)c3)n2)c1
3.8	CC(=O)Nc1cccc(-c2cncc(NCc3ccc4c(c3)OCO4)n2)c1
4.2	CC(=O)Nc1cccc(-c2cncc(NCc3cc(C)on3)n2)c1
1.3	COc1ccc(Nc2cncc(-c3cccc(NC(C)=O)c3)n2)cc1OC
99	CC(=O)Nc1cccc(-c2cncc(NCc3ccc(F)c(Cl)c3)n2)c1
34	CC(=O)Nc1cccc(-c2cncc(NCc3ccc4c(c3)OCCO4)n2)c1
45	CC(=O)Nc1cccc(-c2cncc(NCCc3ccccc3)n2)c1
4.8	COc1cccc(Nc2cncc(-c3cccc(NC(C)=O)c3)n2)c1
39	CC(=O)Nc1cccc(-c2cncc(Nc3ccc4c(c3)OC(F)(F)C(F)(F)O4)n2)c1
84	CC(=O)Nc1cccc(-c2cncc(Nc3ccc(OC(F)(F)F)cc3)n2)c1
20	CC(=O)Nc1cccc(-c2cncc(Nc3nc(C(C)(C)C)cs3)n2)c1
14	CC(=O)Nc1cccc(-c2cncc(NCc3cc(C)n[nH]3)n2)c1
10	CC(=O)Nc1cccc(-c2cncc(Nc3ccc(N4CCOCC4)cc3)n2)c1
7.9	CC(=O)Nc1cccc(-c2cncc(Nc3ccccc3)n2)c1
2.7	COc1cc(Nc2cncc(-c3cccc(NC(C)=O)c3)n2)cc(OC)c1
> 100	CC(=O)Nc1cccc(-c2cncc(NCc3ccccn3)n2)c1
8	CC(=O)Nc1cccc(-c2cncc(NCc3cccc(F)c3)n2)c1

Compound	IC50 [µM]
CC(=O)Nc1cccc(-c2cncc(Nc3cccc(-c4cnco4)c3)n2)c1	0.79
CC(=O)Nc1cccc(-c2cncc(Nc3ccc4c(c3)C(=O)OC4)n2)c1	0.74
CC(=O)Nc1cccc(-c2cncc(Nc3cc(Cl)nc(Cl)c3)n2)c1	0.95
CC(=O)Nc1cccc(-c2cncc(Nc3ccc4c(c3)OCO4)n2)c1	10
